# Laboratory results: publication doi:10.1101/2021.09.30.462449v1 (biorxiv, 2021)
# Tests used:
# Assay in all cases: biochemical
# Settings in all cases: read-out: % inhibition mean (Z'Lyte)
# [1] = target: EGFR (ErbB1) T790M C797S L858R (Homo sapiens, UniProt P00533, C797S/L858R/T790M)
# ABL1 T315I = ABL1 T315I (Homo sapiens, UniProt P00519, T315I)
# [2] = target: MAPK14 (p38 alpha) Direct (Homo sapiens, UniProt Q16539)
# PRKCN (PKD3) = PRKCN (PKD3) (Homo sapiens, UniProt O94806)
# IKBKE (IKK epsilon) = IKBKE (IKK epsilon) (Homo sapiens, UniProt Q14164)
# BTK = BTK (Homo sapiens, UniProt Q06187)
# RPS6KA6 (RSK4) = RPS6KA6 (RSK4) (Homo sapiens, UniProt Q9UK32)
# EGFR (ErbB1) = EGFR (ErbB1) (Homo sapiens, UniProt P00533)
# FES (FPS) = FES (FPS) (Homo sapiens, UniProt P07332)
# MAP2K2 (MEK2) = MAP2K2 (MEK2) (Homo sapiens, UniProt P36507)
# EGFR (ErbB1) T790M L858R = EGFR (ErbB1) T790M L858R (Homo sapiens, UniProt P00533, L858R/T790M)
# AMPK (A1/B2/G2) = AMPK (A1/B2/G2) (Homo sapiens, UniProt Q13131)
# RPS6KA5 (MSK1) = RPS6KA5 (MSK1) (Homo sapiens, UniProt O75582)
# FLT3 D835Y = FLT3 D835Y (Homo sapiens, UniProt P36888, D835Y)
# STK22D (TSSK1) = STK22D (TSSK1) (Homo sapiens, UniProt Q9BXA7)
# RET = RET (Homo sapiens, UniProt P07949)
# MAP2K1 (MEK1) = MAP2K1 (MEK1) (Homo sapiens, UniProt Q02750)
# MARK4 = MARK4 (Homo sapiens, UniProt Q96L34)
# MAPK13 (p38 delta) = MAPK13 (p38 delta) (Homo sapiens, UniProt O15264)
# IRAK4 = IRAK4 (Homo sapiens, UniProt Q9NWZ3)
# YES1 = YES1 (Homo sapiens, UniProt P07947)
# CDK17/cyclin Y = CDK17/cyclin Y (Homo sapiens, UniProt Q00537)
# PAK6 = PAK6 (Homo sapiens, UniProt Q9NQU5)
# CSNK1G1 (CK1 gamma 1) = CSNK1G1 (CK1 gamma 1) (Homo sapiens, UniProt Q9HCP0)
# EPHA1 = EPHA1 (Homo sapiens, UniProt P21709)
# PTK2B (FAK2) = PTK2B (FAK2) (Homo sapiens, UniProt Q14289)
# STK22B (TSSK2) = STK22B (TSSK2) (Homo sapiens, UniProt Q96PF2)
# PRKD1 (PKC mu) = PRKD1 (PKC mu) (Homo sapiens, UniProt Q15139)
# Chain of IKBKE (IKK epsilon) (Q14164 whole entry): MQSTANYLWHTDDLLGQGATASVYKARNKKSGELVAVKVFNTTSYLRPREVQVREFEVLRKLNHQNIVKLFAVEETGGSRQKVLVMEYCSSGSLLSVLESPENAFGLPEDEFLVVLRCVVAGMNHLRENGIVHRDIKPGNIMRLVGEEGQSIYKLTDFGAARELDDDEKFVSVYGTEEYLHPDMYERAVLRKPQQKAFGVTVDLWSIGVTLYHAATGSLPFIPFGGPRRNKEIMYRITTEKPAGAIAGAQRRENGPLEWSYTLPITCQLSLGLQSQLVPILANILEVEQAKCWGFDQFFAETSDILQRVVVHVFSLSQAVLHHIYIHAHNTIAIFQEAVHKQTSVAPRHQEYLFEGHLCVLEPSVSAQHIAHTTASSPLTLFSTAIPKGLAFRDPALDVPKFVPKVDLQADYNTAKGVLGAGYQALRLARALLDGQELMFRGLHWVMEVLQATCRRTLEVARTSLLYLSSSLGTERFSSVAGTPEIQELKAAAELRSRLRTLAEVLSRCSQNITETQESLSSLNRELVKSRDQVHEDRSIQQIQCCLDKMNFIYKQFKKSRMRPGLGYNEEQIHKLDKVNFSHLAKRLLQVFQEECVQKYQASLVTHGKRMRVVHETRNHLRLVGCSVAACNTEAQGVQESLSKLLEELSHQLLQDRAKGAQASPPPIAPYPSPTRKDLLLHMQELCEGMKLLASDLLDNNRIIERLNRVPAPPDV
# Chain of CDK17/cyclin Y (Q00537 whole entry): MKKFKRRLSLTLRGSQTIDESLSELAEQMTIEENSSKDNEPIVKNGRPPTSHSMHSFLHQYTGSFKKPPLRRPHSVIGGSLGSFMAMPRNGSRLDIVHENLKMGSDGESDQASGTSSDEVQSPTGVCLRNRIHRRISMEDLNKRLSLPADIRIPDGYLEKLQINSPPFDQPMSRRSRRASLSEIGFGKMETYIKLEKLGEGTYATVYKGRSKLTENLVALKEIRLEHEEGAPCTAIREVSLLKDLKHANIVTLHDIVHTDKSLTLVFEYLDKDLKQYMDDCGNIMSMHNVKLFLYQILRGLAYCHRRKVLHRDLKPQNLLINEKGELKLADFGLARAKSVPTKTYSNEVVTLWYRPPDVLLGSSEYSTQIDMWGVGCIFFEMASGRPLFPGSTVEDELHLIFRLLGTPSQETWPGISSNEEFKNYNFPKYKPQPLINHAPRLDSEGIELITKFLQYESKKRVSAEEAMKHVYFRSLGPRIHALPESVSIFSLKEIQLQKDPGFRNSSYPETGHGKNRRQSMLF
# Chain of CDK17/cyclin Y (Q8ND76 whole entry partner): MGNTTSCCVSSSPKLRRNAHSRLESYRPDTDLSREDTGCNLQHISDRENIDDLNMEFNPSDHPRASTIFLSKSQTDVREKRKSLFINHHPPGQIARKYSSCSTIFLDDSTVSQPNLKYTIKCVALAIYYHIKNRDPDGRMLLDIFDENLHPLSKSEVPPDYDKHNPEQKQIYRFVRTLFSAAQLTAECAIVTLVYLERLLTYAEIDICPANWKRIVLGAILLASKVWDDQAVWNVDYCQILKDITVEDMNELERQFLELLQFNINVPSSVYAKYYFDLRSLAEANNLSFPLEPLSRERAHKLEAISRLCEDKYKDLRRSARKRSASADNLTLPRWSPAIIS
# Chain of STK22B (TSSK2) (Q96PF2 whole entry): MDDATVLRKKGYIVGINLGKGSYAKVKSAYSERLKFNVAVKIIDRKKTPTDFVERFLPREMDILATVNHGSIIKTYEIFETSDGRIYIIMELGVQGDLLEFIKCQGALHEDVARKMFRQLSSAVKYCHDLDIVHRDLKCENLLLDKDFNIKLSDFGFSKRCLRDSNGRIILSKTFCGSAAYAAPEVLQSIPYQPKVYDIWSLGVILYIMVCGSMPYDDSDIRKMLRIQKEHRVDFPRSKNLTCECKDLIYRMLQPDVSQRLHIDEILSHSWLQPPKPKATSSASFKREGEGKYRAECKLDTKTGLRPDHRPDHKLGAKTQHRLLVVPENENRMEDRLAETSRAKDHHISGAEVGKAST
# Chain of EPHA1 (P21709 whole entry): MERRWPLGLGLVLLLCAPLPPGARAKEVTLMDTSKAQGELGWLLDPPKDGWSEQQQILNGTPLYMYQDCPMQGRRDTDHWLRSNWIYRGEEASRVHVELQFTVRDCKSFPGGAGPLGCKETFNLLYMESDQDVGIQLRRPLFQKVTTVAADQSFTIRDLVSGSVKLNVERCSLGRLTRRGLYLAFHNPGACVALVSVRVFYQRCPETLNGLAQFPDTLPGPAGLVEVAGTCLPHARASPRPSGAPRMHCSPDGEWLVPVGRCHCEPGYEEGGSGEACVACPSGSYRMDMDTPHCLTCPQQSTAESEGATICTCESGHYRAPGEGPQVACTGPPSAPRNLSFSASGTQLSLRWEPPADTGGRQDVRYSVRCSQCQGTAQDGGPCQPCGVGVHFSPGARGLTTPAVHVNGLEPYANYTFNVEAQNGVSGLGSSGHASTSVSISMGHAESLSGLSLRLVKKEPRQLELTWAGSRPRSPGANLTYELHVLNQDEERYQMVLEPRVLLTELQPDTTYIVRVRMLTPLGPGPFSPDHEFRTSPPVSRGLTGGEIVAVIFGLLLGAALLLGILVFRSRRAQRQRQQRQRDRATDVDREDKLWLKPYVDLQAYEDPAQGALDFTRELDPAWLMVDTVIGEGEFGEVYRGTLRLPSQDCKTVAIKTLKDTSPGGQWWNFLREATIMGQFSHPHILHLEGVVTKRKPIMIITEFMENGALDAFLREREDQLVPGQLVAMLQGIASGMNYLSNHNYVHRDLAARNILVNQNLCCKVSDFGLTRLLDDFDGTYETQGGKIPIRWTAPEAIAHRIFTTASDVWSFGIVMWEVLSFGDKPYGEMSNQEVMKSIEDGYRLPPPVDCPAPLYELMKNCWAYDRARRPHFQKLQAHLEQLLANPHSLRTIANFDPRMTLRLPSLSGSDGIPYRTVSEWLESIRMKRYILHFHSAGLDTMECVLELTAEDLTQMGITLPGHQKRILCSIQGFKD
# Chain of PAK6 (Q9NQU5 whole entry): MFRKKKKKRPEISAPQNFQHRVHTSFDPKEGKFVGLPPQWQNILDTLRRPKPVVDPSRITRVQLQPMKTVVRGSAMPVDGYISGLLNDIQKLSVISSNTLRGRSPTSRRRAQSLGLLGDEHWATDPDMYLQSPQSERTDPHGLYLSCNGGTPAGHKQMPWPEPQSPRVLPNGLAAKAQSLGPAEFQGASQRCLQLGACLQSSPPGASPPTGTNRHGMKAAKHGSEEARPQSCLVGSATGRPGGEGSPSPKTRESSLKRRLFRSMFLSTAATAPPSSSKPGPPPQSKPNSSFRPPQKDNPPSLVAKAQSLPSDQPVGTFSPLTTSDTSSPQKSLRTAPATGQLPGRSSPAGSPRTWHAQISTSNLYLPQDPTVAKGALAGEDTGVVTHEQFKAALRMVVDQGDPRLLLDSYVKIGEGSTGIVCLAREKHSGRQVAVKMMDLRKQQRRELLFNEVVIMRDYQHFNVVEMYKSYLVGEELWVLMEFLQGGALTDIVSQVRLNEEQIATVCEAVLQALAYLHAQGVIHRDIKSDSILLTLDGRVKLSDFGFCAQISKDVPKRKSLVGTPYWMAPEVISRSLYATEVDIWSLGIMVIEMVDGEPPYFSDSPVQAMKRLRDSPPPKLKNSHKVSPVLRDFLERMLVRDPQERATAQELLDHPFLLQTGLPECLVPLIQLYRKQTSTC
# Chain of RPS6KA6 (RSK4) (Q9UK32 whole entry): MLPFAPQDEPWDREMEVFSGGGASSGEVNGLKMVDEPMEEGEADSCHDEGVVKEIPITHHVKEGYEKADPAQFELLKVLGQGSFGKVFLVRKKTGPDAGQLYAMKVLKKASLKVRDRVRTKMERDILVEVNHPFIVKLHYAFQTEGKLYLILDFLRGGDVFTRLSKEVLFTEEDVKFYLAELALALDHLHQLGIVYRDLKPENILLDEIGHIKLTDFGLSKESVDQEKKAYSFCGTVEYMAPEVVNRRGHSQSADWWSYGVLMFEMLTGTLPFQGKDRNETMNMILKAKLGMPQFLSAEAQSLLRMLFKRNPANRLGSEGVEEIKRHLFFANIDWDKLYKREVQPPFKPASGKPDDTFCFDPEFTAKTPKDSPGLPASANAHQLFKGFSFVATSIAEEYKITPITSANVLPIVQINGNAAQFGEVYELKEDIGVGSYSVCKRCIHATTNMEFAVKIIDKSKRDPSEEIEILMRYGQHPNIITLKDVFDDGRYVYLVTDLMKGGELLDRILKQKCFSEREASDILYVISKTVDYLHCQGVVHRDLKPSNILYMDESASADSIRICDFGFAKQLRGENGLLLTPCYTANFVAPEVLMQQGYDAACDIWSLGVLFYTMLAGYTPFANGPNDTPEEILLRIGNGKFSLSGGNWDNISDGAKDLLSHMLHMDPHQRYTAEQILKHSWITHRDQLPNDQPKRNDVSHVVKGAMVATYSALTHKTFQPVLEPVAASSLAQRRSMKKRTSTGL
# Chain of MAP2K2 (MEK2) (P36507 whole entry): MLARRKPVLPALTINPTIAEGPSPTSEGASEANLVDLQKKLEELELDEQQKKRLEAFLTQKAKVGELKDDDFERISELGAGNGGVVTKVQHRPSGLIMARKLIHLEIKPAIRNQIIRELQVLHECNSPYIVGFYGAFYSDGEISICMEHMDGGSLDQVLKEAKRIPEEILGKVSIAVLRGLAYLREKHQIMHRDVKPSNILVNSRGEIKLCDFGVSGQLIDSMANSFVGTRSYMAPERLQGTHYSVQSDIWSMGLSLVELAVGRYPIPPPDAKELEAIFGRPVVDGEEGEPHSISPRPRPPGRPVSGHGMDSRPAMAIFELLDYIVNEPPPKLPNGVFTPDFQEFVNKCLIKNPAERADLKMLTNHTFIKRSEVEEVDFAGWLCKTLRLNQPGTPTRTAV
structure (smiles),measurement,setting,value
"COc1ccc2nc3cc(Cl)ccc3c(Nc3cc(CN4CCCC4)c(O)c(CN4CCCC4)c3)c2n1 [Pyronaridine, 4-[(7-Chloro-2-methoxybenzo[b][1,5]naphthyridin-10-yl)amino]-2,6-bis(1-pyrrolidinylmethyl)phenol phosphate (1:4)]",inhibition at 1 µM,[1],2%
same,inhibition at 1 µM,ABL1 T315I,11%
same,inhibition at 1 µM,[2],3%
same,inhibition at 1 µM,PRKCN (PKD3),8%
same,inhibition at 1 µM,IKBKE (IKK epsilon),2%
same,inhibition at 1 µM,BTK,9%
same,inhibition at 1 µM,RPS6KA6 (RSK4),4%
same,inhibition at 1 µM,EGFR (ErbB1),-5%
same,inhibition at 1 µM,FES (FPS),-10%
same,inhibition at 1 µM,MAP2K2 (MEK2),2%
same,inhibition at 1 µM,EGFR (ErbB1) T790M L858R,5%
same,inhibition at 1 µM,AMPK (A1/B2/G2),-2%
same,inhibition at 1 µM,RPS6KA5 (MSK1),2%
same,inhibition at 1 µM,FLT3 D835Y,2%
same,inhibition at 1 µM,STK22D (TSSK1),6%
same,inhibition at 1 µM,RET,5%
same,inhibition at 1 µM,MAP2K1 (MEK1),-2%
same,inhibition at 1 µM,MARK4,-4%
same,inhibition at 1 µM,MAPK13 (p38 delta),5%
same,inhibition at 1 µM,IRAK4,-6%
same,inhibition at 1 µM,YES1,-6%
same,inhibition at 1 µM,CDK17/cyclin Y,-2%
same,inhibition at 1 µM,PAK6,-2%
same,inhibition at 1 µM,CSNK1G1 (CK1 gamma 1),0%
same,inhibition at 1 µM,EPHA1,1%
same,inhibition at 1 µM,PTK2B (FAK2),-1%
same,inhibition at 1 µM,STK22B (TSSK2),-2%
same,inhibition at 1 µM,PRKD1 (PKC mu),-2%
